PMC12635197, “Discovery of first-in-class inhibitors of the TRF1:TIN2 protein:protein interaction by fragment screening” (Scientific Reports, 2025)
pIC50, pKd: −log10 of the molar value.

Experiments:
[1] = Fragment solubility assay (quantitative 1H NMR); type: physicochemical; settings: NMR buffer, overnight incubation, 1H NMR quantified against 1 mM caffeine standard
Method: Aqueous solubility test samples were prepared by adding 3.6 µL compound (50 mM stock in 100% DMSO-d6) to 176.4 µL NMR buffer in a microcentrifuge tube. The samples were incubated overnight and transferred to a 3-mm NMR tube (Bruker, Part No. Z112272). ^1H NMR spectra were recorded, with the DMSO and water signals dampened. 1 mM caffeine (Sigma, C1778 in PBS (pH 7.4) with 1% DMSO-d6) was used as a standard to quantify the ligand signals and determine the concentration of samples.
NMR data were collected on a Bruker Avance Neo 600-MHz spectrometer equipped with a 5 mm TCI-CryoProbe. The ^1H spectrum was referenced to the internal deuterated solvent. The operating frequency for ^1H was 600 MHz. All NMR data were acquired at the temperature of 298 K. All data were acquired and processed using Bruker Topspin 4.0. The quantitative ^1H-NMR spectrum was acquired using a Bruker standard 1D lc1pngppsf2 pulse sequence with 32 scans. The sweep width was 6.2 ppm with O1P set to 8.8 ppm, and the FID contained 16k time-domain data points. Relaxation delay was set to 20 s. Water signal was suppressed.

TRF1TRFH [2] = molecular target: T1, TRF1TRFH (Homo sapiens, UniProt P54274); test: LO-NMR CPMG assay (relaxation-edited), singletons; type: binding; settings: single experiment; for CPMG reduction: average peak intensity reduction on addition of TRF1TRFH, 250 µM ligand, 20 µM protein; for CPMG recovery: net recovery of peak intensity on addition of TIN2TBM peptide (40 µM) to compound plus protein
T1 construct: encoding residues 47–268, UniProt identifier P54274-1; His6-MBP (TEV-cleavable) (N, cleaved yes); made in house; host or cells: E. coli BL21-CodonPlus(DE3)-RIL
T1 sequence (P54274 47-268): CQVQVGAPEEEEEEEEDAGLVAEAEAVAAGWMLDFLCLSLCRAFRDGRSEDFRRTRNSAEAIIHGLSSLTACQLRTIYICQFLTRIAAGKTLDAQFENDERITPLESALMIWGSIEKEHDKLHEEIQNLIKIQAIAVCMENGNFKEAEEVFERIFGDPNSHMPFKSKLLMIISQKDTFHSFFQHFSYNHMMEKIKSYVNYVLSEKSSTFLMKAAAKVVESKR
Method: We next used a LO-NMR CPMG assay to orthogonally validate XChem hits in solution, aiming to eliminate false positives and rank hit matter for follow-up studies. Compounds were tested as singletons and prepared in two samples containing either compound alone (sample 1) or compound + TRF1TRFH (sample 2).
The fragment screen by LO-NMR was carried out using conditions described previously, with some modifications. Fragments were dispensed in triplicate into a 384-well plate using an Echo 550 liquid handler to give a final ligand concentration of 250 µM (total sample volume of 40 µL). 40 µL of TRF1TRFH protein (in NMR buffer; 20 µM final protein concentration in the assay) were added to the ‘protein’ samples; 40 µL of TRF1TRFH protein and TIN2TBM peptide (21-mer, Ac-[…]-CONH2; 40 µM final concentration in the assay) were both added to the ‘competitor’ samples; 40 µL NMR buffer were added to the ‘compound-only’ samples. Solutions were transferred to 1.7-mm NMR tubes using a Bruker SamplePro Tube robotics system. ^1H NMR spectra were recorded on a Bruker AVIII 500 MHz spectrometer at 298 K, equipped with a 1.7-mm TXI probe, with samples in 1.7-mm SampleJET NMR tubes (Bruker). DMSO and water signals were dampened. A relaxation spin filter was applied at 400 ms. Data were processed using Bruker Topspin 4.0. Lines were broadened with LB = 3.0, and the baseline was corrected between 6.0 and 10.0 ppm.
The data were then analysed using the MNova Screen software. Only peaks between 5.5 and 9.5 ppm were considered. Peaks with a height of < 5% maximum peak height within the region of interest were considered noise, and the minimum matched peak level was set at > 51%. The relative peak intensity change (I) was calculated for all peaks in the 5.5–9.5 ppm region, for each compound, as described previously. The average integral for all peaks between 6.0 and 10.0 ppm was calculated, and the differences between compound-only, compound-plus-protein, and compound-plus-protein-plus-competitor samples were compared. The net recovery was calculated by subtracting the reduction in peak integral of the compound-plus-protein samples from the compound-plus-protein-plus-competitor samples.
For hit validation, relaxation-edited LO-NMR experiments were repeated as described above on single compounds instead of fragment cocktails.

TRF1TRFH [3] = molecular target: T1, TRF1TRFH; test: LO-NMR R2KD assay; type: binding; settings: for pKd: global KD shared across 1H NMR peaks, single experiment, 95% CI in parentheses, 2 µM TRF1TRFH
Method: Recent work by Liu and colleagues introduced a novel LO-NMR method that can be used to quantitatively determine the dissociation constant (KD) of a ligand for a protein from measured R2 values of ligand nuclei at a range of ligand concentrations.
The R2KD assay was carried out as described by Liu et al.[40]. A Bruker SamplePro liquid handler was used to prepare 10 samples: 8 samples containing an increasing ligand concentration from 50 to 500 µM whilst maintaining a constant TRF1TRFH concentration (2 µM final); and two samples containing ligand only at 200 µM and 400 µM. All ten samples were prepared from stock solutions of ligand, DMSO, protein and buffer alone using the Bruker SamplePro liquid handler prior to transfer to 3-mm NMR tubes.
NMR data were collected at 298 K on a Bruker Avance Neo 600-MHz spectrometer using the Bruker Topspin 4.0 software. T2 relaxation experiments were performed using the standard Bruker CPMG pulse program with Excitation Sculpting incorporated to suppress water signal. The spin-echo period (delay-180°-delay) was set to 1 ms (d20 = 500 µs), and the relaxation delay (d1) was set to 10 s. The sudo-2D experiment contained nine slices with the spin echo period repeated at the following times: 4, 20, 100, 200, 300, 500, 700, 1000, and 2000 ms. T2 relaxation data were processed using the MestReNova 14.1 data analysis module to obtain integrals of individual[1]H-NMR signals, which were used to calculate R2 with the equation I = I0e^(−tR2). GraphPad Prism 9.0.0 was used to fit R2 values of individual compound peaks to obtain an overall (shared) KD value from all peaks of the compound.

[4] = molecular target: T2, TRF1TRFH:TIN2-FAM interaction (Homo sapiens, UniProt P54274); test: Fluorescence polarisation (FP) competition assay, TIN2-FAM displacement; type: binding; settings: 0.6 µM TRF1TRFH, 25 nM TIN2-FAM; mean of three independent experiments, 95% CI in parentheses
T2 construct: encoding residues 47–268, UniProt identifier P54274-1; His6-MBP (TEV-cleavable) (N, cleaved yes); made in house; host or cells: E. coli BL21-CodonPlus(DE3)-RIL (TRF1TRFH); probe peptide from Pepceuticals
T2 sequence (P54274 47-268): T1 sequence (P54274 47-268)
Method: To complement the biophysical R2KD assay, we developed a fluorescence polarisation (FP) competition assay based on a TIN2TBM peptide labelled with an N-terminal 5(6)-carboxyfluorescein (6-FAM) fluorophore. […] The NMR hit analogues were then titrated against constant concentrations of TRF1TRFH and TIN2-FAM (0.6 µM and 25 nM, respectively).
A TIN2TBM peptide was obtained from Pepceuticals with a 5(6)-carboxyfluorescein (FAM) fluorophore added to the N-terminus for fluorescence studies. To determine the assay window for the FP assay, the TIN2-FAM probe was prepared as a 16-µM stock in aqueous buffer and titrated from 0 to 400 nM against either a constant concentration of TRF1TRFH (0.5 µM in FP buffer) or FP buffer alone (25 mM HEPES-NaOH pH 7.5, 100 mM NaCl, 1 mM TCEP, 0.05% w/v CHAPS). Samples were prepared to a final volume of 10 µL in Packard Proxiplate 384 F plus plates; plates were incubated in darkness at room temperature for 1 h prior to measuring fluorescence intensities and calculating FP values, using a BMG Labtech PHERAstar FSX plate reader with an FP 485 520 520 optic module. A settling time of 0.3 s was used, and the number of flashes was set to 200 for FP measurements. For each plate, a target mP of 35 was set and the gain adjusted on the TIN2-FAM probe control well minus protein.
For the FP competition assay, the unlabelled compounds (from 50-mM DMSO stocks) were first dispensed in duplicate into wells of a Proxiplate 384 F Plus plate using an Echo 550 acoustic liquid handler to give a 13-point concentration range from 0.2 to 500 µM. Wells were then backfilled to 250 nL with DMSO before the addition of 5 µL of 2x TRF1TRFH (0.6 µM final concentration) and 4.75 µL 2x TIN2-FAM (25 nM final concentration). Plates were spun and sealed prior to incubation for 1 h in darkness. FP measurements were then carried out as described above.

Kin. Sol. [1] [µM]	CPMG reduction (TRF1TRFH [2]) [%]	CPMG recovery (TRF1TRFH [2]) [%]	pKd (TRF1TRFH [3])	pIC50 [4]	increase in affinity relative to ethoxy parent 27 (TRF1TRFH [3]; R2KD assay)	Compound
860	83	4	< 3.00			CC(C)Oc1ccc(S(=O)(=O)[O-])c2ccccc12.[Na+] [Compound 30]
320			3.96	3.77		COc1ccccc1COc1ccc(S(=O)(=O)[O-])c2ccccc12.[Na+] [Compound 39]
160				3.96		O=S(=O)([O-])c1ccc(OCc2cccc(Br)c2)c2ccccc12.[Na+] [Compound 44]
	22					c1ccc(-c2noc(C3CCC3)n2)nc1 [Compound 16]
570			4.28	3.82		COc1cccc(COc2ccc(S(=O)(=O)[O-])c3ccccc23)c1.[Na+] [Compound 38]
810	96	49	3.55			CCOc1ccc(S(=O)(=O)O)c2ccccc12 [Compound 27]
895	28	20				CCOc1ccc(C(=O)O)c2ccccc12 [Compound 34, 4-ethoxy-1-naphthoic acid]
260				4.10		O=S(=O)([O-])c1ccc(OCc2cccc(OC(F)(F)F)c2)c2ccccc12.[Na+] [Compound 42]
	12					CN(C)C(=O)COc1cccc(F)c1 [Compound 6]
0						CCOc1ccc(S(=O)(=O)NCc2ccccc2)c2ccccc12 [Compound 36]
850	100	29	4.21	3.82	five-fold increase in affinity	O=S(=O)(O)c1ccc(OCc2ccccc2)c2ccccc12 [Compound 32]
500			3.85	3.74		O=S(=O)([O-])c1ccc(OCc2cccc(Cl)c2)c2ccccc12.[Na+] [Compound 43]
590			4.34	4.64		CCCOc1cccc(COc2ccc(S(=O)(=O)[O-])c3ccccc23)c1.[Na+] [Compound 41]
	13					O=C(NC1CC1)c1cnn2cccnc12 [Compound 1]
	0					NS(=O)(=O)c1ccccc1OC(F)F [Compound 15]
< 50						CCOc1ccc(S(=O)(=O)N(C)C)c2ccccc12 [Compound 35]
610	87	22				COc1ccc(S(=O)(=O)O)c2ccccc12 [Compound 28, 4-methoxy-1-naphthalenesulfonic acid]
50	79	1				CCOc1ccc(S(N)(=O)=O)c2ccccc12 [Compound 33, 4-ethoxynaphthalene-1-sulfonamide]
840			< 3.00			O=S(=O)(O)c1ccc(O)c2ccccc12 [Compound 29, 1-naphthol-4-sulfonic acid]
460			4.08	3.70		Cc1cccc(COc2ccc(S(=O)(=O)[O-])c3ccccc23)c1.[Na+] [Compound 37]
